Like-named read-outs stand apart in the source and are kept apart here. Residues, ends and D or L forms follow the SMILES beside them.
Legend:
S. pyogenes (M1) = format: cell-based, Streptococcus pyogenes; conditions: for MBC: M1
Procedure: (§1) Peptides were screened against Escherichia coli (BL21), Streptococcus pyogenes (M1T1 5448, hereby referred to as M1), Pseudomonas aeruginosa (PAO1), and Staphylococcus aureus (USA300). Overnight bacterial cultures were grown in optimal media for each species: Luria-Bertani (LB) broth for E. coli, P. aeruginosa, and S. aureus, and Todd-Hewitt (TH) broth for S. pyogenes. Cultures were pelleted and re-suspended in Mueller-Hinton (MH) broth for peptide screens or minimal inhibitory concentration (MIC) assays, with 1 × 10^6 CFU/mL bacteria added per well ([Wiegand et al., 2008]). MICs for each parent peptide were identified against each bacterial strain as previously described ([Fields et al., 2018]). Members of each peptide library were screened against each bacterial strain at half of the MIC of the corresponding parent peptide to identify library members with increased antimicrobial activity relative to the parent peptide. […] Minimal bactericidal concentrations (MBCs) were determined following the respective MIC assays by plating aliquots from wells corresponding to each peptide concentration from the 96-well plate used for the MIC on species-appropriate agar. Plates were incubated at 37°C overnight, and MBCs were identified as the lowest concentrations of peptide at which no colonies were obtained. A Synergy H1 Microplate Reader (BioTek, Winooski, VT, United States) was used to determine the MICs and identify peptides with greater antimicrobial activity than the corresponding parent peptide by measuring OD 600 of the bacterial cultures in 96-well microtiter plates.

E. coli (BL21) = format: cell-based, Escherichia coli; conditions: for MBC: BL21; for MIC: BL21, 16 h
Procedure: as §1

P. aeruginosa (PAO1) = format: cell-based, Pseudomonas aeruginosa; conditions: for MBC: PAO1; for MIC: PAO1, 16 h
Procedure: as §1

S. aureus (USA300) = format: cell-based, Staphylococcus aureus; conditions: for MBC: USA300; for MIC: USA300, 16 h
Procedure: as §1

MIC (S. pyogenes (M1); M1, 16 h) [µM] | MIC (E. coli (BL21)) [µM] | MIC (P. aeruginosa (PAO1)) [µM] | MIC (S. aureus (USA300)) [µM] | MIC (S. pyogenes (M1); S. pyogenes M1) [µM] | Compound | MBC (S. pyogenes (M1)) [µM] | MBC (E. coli (BL21)) [µM] | MBC (P. aeruginosa (PAO1)) [µM] | MBC (S. aureus (USA300)) [µM]
8 | 4 | 16 | 8 | – | CC[C@H](C)[C@H](NC(=O)[C@H](CCCCN)NC(=O)[C@H](CCCCN)NC(=O)[C@H](Cc1c[nH]c2ccccc12)NC(=O)[C@H](CCC(=O)O)NC(=O)[C@H](CC(N)=O)NC(=O)[C@@H](NC(=O)[C@@H](NC(=O)[C@H](CCCCN)NC(=O)[C@H](CCCCN)NC(=O)[C@H](CC(C)C)NC(=O)[C@H](CCCNC(=N)N)NC(=O)[C@H](CC(N)=O)NC(=O)[C@H](Cc1ccccc1)NC(=O)[C@@H](NC(=O)[C@H](CCCCN)NC(=O)[C@H](CCC(=O)O)NC(=O)[C@@H](NC(=O)CNC(=O)[C@H](C)N)[C@@H](C)O)[C@@H](C)CC)[C@@H](C)O)[C@@H](C)CC)C(=O)N[C@@H](C)C(=O)N[C@@H](CCCCN)C(=O)N[C@@H](CCCNC(=N)N)C(=O)N[C@@H](C)C(=O)N[C@@H](Cc1c[nH]c2ccccc12)C(=O)O [Syn-larvacin-48] (H-AGTEKIFNRLKKTINEWKKIAKRAW-OH; N-terminus and C-terminus assumed) | 8 | 4 | 32 | 8
– | 16 | >128 | >128 | 0.25 | CC[C@H](C)[C@H](NC(=O)[C@H](CCCNC(=N)N)NC(=O)[C@H](C)NC(=O)[C@H](CCCCN)NC(=O)[C@H](CCCCN)NC(=O)CNC(=O)[C@H](Cc1ccccc1)NC(=O)[C@H](CCCCN)NC(=O)[C@H](CCCNC(=N)N)NC(=O)[C@H](CC(C)C)NC(=O)[C@H](CCC(=O)O)NC(=O)[C@H](CCC(=O)O)NC(=O)[C@H](CCCCN)NC(=O)[C@H](CC(C)C)NC(=O)[C@H](Cc1ccc(O)cc1)NC(=O)[C@H](CC(C)C)NC(=O)[C@@H](NC(=O)[C@H](CC(C)C)NC(=O)[C@H](C)NC(=O)[C@H](CCC(N)=O)NC(=O)[C@H](CCCNC(=N)N)NC(=O)CNC(=O)[C@@H](N)Cc1c[nH]c2ccccc12)[C@@H](C)O)C(=O)N[C@@H](C)C(=O)N[C@@H](Cc1c[nH]c2ccccc12)C(=O)O [Syn-xiamencin-13] (H-WGRQALTLYLKEELRKFGKKARIAW-OH; N-terminus and C-terminus assumed) | 0.25 | 32 | >128 | >128
1 | 2 | >128 | 64 | – | CC[C@H](C)[C@H](NC(=O)[C@H](CCCCN)NC(=O)CNC(=O)[C@H](Cc1ccccc1)NC(=O)[C@H](CCCCN)NC(=O)[C@H](CCCNC(=N)N)NC(=O)[C@H](CC(C)C)NC(=O)[C@H](Cc1ccc(O)cc1)NC(=O)[C@H](CCC(=O)O)NC(=O)[C@H](CC(C)C)NC(=O)[C@H](CC(C)C)NC(=O)[C@H](CCC(=O)O)NC(=O)[C@H](CCCCN)NC(=O)[C@@H](NC(=O)[C@H](CC(C)C)NC(=O)[C@H](CCCNC(=N)N)NC(=O)[C@H](CCC(N)=O)NC(=O)[C@H](C)NC(=O)CNC(=O)[C@@H](N)Cc1c[nH]c2ccccc12)[C@@H](C)O)C(=O)N[C@@H](C)C(=O)N[C@@H](CCCNC(=N)N)C(=O)N[C@@H](CCCCN)C(=O)N[C@@H](C)C(=O)N[C@@H](Cc1c[nH]c2ccccc12)C(=O)O [Syn-xiamencin-15] (H-WGAQRLTKELLEYLRKFGKIARKAW-OH; N-terminus and C-terminus assumed) | 1 | 2 | >128 | 128
8 | 8 | 16 | >128 | – | CC[C@H](C)[C@H](NC(=O)[C@H](CCC(=O)O)NC(=O)[C@H](CCCNC(=N)N)NC(=O)[C@H](CCCNC(=N)N)NC(=O)[C@H](CC(C)C)NC(=O)[C@H](Cc1ccc(O)cc1)NC(=O)[C@H](C)NC(=O)[C@H](CCCCN)NC(=O)[C@@H](NC(=O)[C@@H](NC(=O)[C@H](CCC(N)=O)NC(=O)[C@H](CCCNC(=N)N)NC(=O)CNC(=O)[C@H](C)N)[C@@H](C)O)[C@@H](C)CC)C(=O)N[C@@H](CCCNC(=N)N)C(=O)N[C@@H](CCCCN)C(=O)N[C@@H](CCCNC(=N)N)C(=O)NCC(=O)N[C@@H](CCCNC(=N)N)C(=O)N[C@@H](CCCCN)C(=O)N[C@@H](C)C(=O)N[C@H](C(=O)N[C@H](C(=O)N[C@@H](C)C(=O)N[C@@H](Cc1c[nH]c2ccccc12)C(=O)O)[C@@H](C)CC)C(C)C [Syn-sordellicin-1] (H-AGRQTIKAYLRREIRKRGRKAVIAW-OH; N-terminus and C-terminus assumed) | 8 | 8 | 16 | >128
2 | 1 | 16 | 32 | – | CC[C@H](C)[C@H](NC(=O)[C@H](CCCNC(=N)N)NC(=O)[C@H](C)NC(=O)[C@H](CCCCN)NC(=O)[C@H](CCCNC(=N)N)NC(=O)CNC(=O)[C@@H](NC(=O)[C@H](CCCCN)NC(=O)[C@H](CCCNC(=N)N)NC(=O)[C@@H](NC(=O)[C@H](CCC(=O)O)NC(=O)[C@H](CCCNC(=N)N)NC(=O)[C@H](CCCNC(=N)N)NC(=O)[C@H](CC(C)C)NC(=O)[C@H](Cc1ccc(O)cc1)NC(=O)[C@H](C)NC(=O)[C@H](CCCCN)NC(=O)[C@@H](NC(=O)[C@H](Cc1c[nH]c2ccccc12)NC(=O)[C@H](CCC(N)=O)NC(=O)[C@H](CCCNC(=N)N)NC(=O)CNC(=O)[C@H](C)N)[C@@H](C)CC)[C@@H](C)CC)C(C)C)C(=O)N[C@@H](C)C(=O)N[C@@H](Cc1c[nH]c2ccccc12)C(=O)O [Syn-sordellicin-45] (H-AGRQWIKAYLRREIRKVGRKARIAW-OH; N-terminus and C-terminus assumed) | 2 | 1 | 32 | 32
8 | 32 | >128 | >128 | – | CC[C@H](C)[C@H](NC(=O)[C@H](CCCCN)NC(=O)[C@H](CCCCN)NC(=O)[C@H](CCCCN)NC(=O)[C@H](CC(C)C)NC(=O)[C@H](Cc1ccccc1)NC(=O)[C@H](CCC(N)=O)NC(=O)[C@H](CCCNC(=N)N)NC(=O)[C@@H](NC(=O)[C@@H](NC(=O)[C@H](CCC(=O)O)NC(=O)[C@H](CCCCN)NC(=O)CNC(=O)[C@H](C)N)[C@@H](C)O)[C@@H](C)CC)C(=O)N[C@@H](CCC(N)=O)C(=O)N[C@@H](CCC(=O)O)C(=O)N[C@@H](CCCCN)C(=O)NCC(=O)N[C@@H](CCCCN)C(=O)N[C@@H](CCCNC(=N)N)C(=O)N[C@@H](C)C(=O)N[C@H](C(=O)N[C@H](C(=O)N[C@@H](C)C(=O)N[C@@H](Cc1c[nH]c2ccccc12)C(=O)O)[C@@H](C)CC)[C@@H](C)O [Syn-larvacin-1] (H-AGKETIRQFLKKKIQEKGKRATIAW-OH; N-terminus and C-terminus assumed) | 64 | >128 | >128 | >128
16 | 32 | >128 | >128 | – | CC[C@H](C)[C@H](NC(=O)[C@H](Cc1ccccc1)NC(=O)[C@H](C)NC(=O)[C@H](CCCCN)NC(=O)[C@H](CCCCN)NC(=O)CNC(=O)[C@H](CCCNC(=N)N)NC(=O)[C@H](CCCCN)NC(=O)[C@H](CCCNC(=N)N)NC(=O)[C@H](CC(C)C)NC(=O)[C@H](CCC(=O)O)NC(=O)[C@H](CCC(=O)O)NC(=O)[C@H](CCCCN)NC(=O)[C@H](CC(C)C)NC(=O)[C@H](Cc1ccc(O)cc1)NC(=O)[C@H](CC(C)C)NC(=O)[C@@H](NC(=O)[C@H](CC(C)C)NC(=O)[C@H](C)NC(=O)[C@H](CCC(N)=O)NC(=O)[C@H](CCCNC(=N)N)NC(=O)CNC(=O)[C@H](C)N)[C@@H](C)O)C(=O)N[C@@H](C)C(=O)N[C@@H](Cc1c[nH]c2ccccc12)C(=O)O [Syn-xiamencin-1] (H-AGRQALTLYLKEELRKRGKKAFIAW-OH; N-terminus and C-terminus assumed) | 16 | 32 | >128 | >128
– | 4 | 64 | >128 | 0.5 | CC[C@H](C)[C@H](NC(=O)[C@H](CCCCN)NC(=O)CNC(=O)[C@H](Cc1ccccc1)NC(=O)[C@H](CCCCN)NC(=O)[C@H](CCCNC(=N)N)NC(=O)[C@H](CC(C)C)NC(=O)[C@H](Cc1ccc(O)cc1)NC(=O)[C@H](CCC(=O)O)NC(=O)[C@H](CC(C)C)NC(=O)[C@H](CC(C)C)NC(=O)[C@H](CCC(=O)O)NC(=O)[C@H](CCCCN)NC(=O)[C@@H](NC(=O)[C@H](CC(C)C)NC(=O)[C@H](CCCNC(=N)N)NC(=O)[C@H](CCC(N)=O)NC(=O)[C@H](C)NC(=O)CNC(=O)[C@H](C)N)[C@@H](C)O)C(=O)N[C@@H](C)C(=O)N[C@@H](CCCNC(=N)N)C(=O)N[C@@H](CCCCN)C(=O)N[C@@H](C)C(=O)N[C@@H](Cc1c[nH]c2ccccc12)C(=O)O [Syn-xiamencin-7] (H-AGAQRLTKELLEYLRKFGKIARKAW-OH; N-terminus and C-terminus assumed) | 0.5 | 4 | 128 | >128
